Data as given in publication PMC12336229, “Peptide-mimetics derived from leucyl-tRNA synthetase are potential agents for the therapy of mt-tRNA related diseases” (Frontiers in Pharmacology, 2025).

Experiments:
Type in all cases: cell-based, human
[1] = tested on: control cells (WT and L-8344 cybrids); assay: Cell viability in galactose medium (Trypan blue dye exclusion); settings: WT and L-8344 cells; 24 h galactose medium
Method: (§1) Previously established osteosarcoma-derived (143B.TK-) cybrid cell lines from patients, which bear either the m.3243A>G mutation in mt-tRNA^Leu(UUR) or the m.8344A>G mutation in mt-tRNA^Lys and controls ([Perli et al., 2014]; [Perli et al., 2016]; [Perli et al., 2020]) were used.
(§2) Cybrid cells were cultured in Dulbecco’s modified Eagle’s medium (DMEM), supplemented with 4.5 g/L D-glucose, 10% foetal bovine serum (FBS), 2 mM L-glutamine, 50 μg/ML uridine, 100 U/mL penicillin, and […] (referred to as glucose medium) in a humidified atmosphere of 95% air and 5% CO2 at 37°C. For cell viability experiments, cells were grown either in glucose medium or in glucose-free DMEM, supplemented with 5 mM galactose, […], and 10% FBS (referred to as galactose medium). The reason for using the latter medium is that a pathological phenotype can be appreciated in cells growing on galactose, which forces cells to rely on mitochondrial respiration, but not in cells growing on glucose.
(§3) To assess growth capability, cells were harvested and seeded at 30 × 10^4 in 60 mm dishes in glucose medium for 24 h with the addition of one of the compounds. Cells were switched in glucose or galactose and, after 24 h, cell viability was measured by the Trypan blue dye exclusion assay. Cells were harvested with 0.25% trypsin and 0.2% EDTA, washed, suspended in PBS in the presence of Trypan blue solution (Sigma–Aldrich) at 1:1 ratio and counted using a hemocytometer. The number of viable cells in the galactose medium was expressed as a percentage of the number of cells in glucose medium.

m.3243A>G mutant cybrids [2] = assay: as above; settings: 5 µM; 24 h galactose medium; compared with non-treated mutant cells; at least three independent experiments
Method: as §1, §2, §3

[3] = tested on: m.8344A>G mutant cybrids (H-8344); assay: as above; settings: 5 µM; 24 h galactose medium; compared with non-treated mutant cells; at least three independent experiments
Method: as §1, §2, §3

[4] = tested on: control cells (WT and L-8344 cybrids); assay: Respirometry assay, oxygen consumption rate (Clark type oxygen electrode); settings: after 36 h, treated/vehicle ratio
Method: as §1
(§4) Oxygen consumption rate (OCR) of cybrids was evaluated with Clark type oxygen electrode (Hansatech Instruments, Norfolk, United Kingdom). After cybrid incubation with compounds at 5 µM concentration, both control and mutant cybrids were maintained in glucose medium for 36 h, then OCR was measured in intact cells (3 × 10^6) in 1 mL DMEM lacking glucose supplemented with […].

m.3243A>G mutant cybrids [5] = assay: as above; settings: 5 µM; after 36 h of treatment; compared with vehicle mutant cells
Method: as §1, §4

[6] = tested on: m.8344A>G mutant cybrids (H-8344); assay: as above; settings: 5 µM; after 36 h of treatment; compared with vehicle mutant cells
Method: as §1, §4

mutant cybrids = assay: Confocal fluorescence microscopy, co-localization with mitochondria (Mitotracker Red)
Method: as §1
Constructs made of compounds listed in Table 1, comprising D-peptides linked to the Cy5 fluorophore via maleimide cross-linker, were administered to sub-confluent cybrid cell cultures at 0.25 µM in glucose medium. About 24 h after treatment with each construct, cells were incubated with 200 nM Mitotracker Red FM (LifeTechnologies Italia, Monza, Italy) for 30 min at 37°C.
Subsequently, cells were visualized by confocal microscopy. Images of 800 × 800 px (at 88 nm/px) were acquired at the Olympus iX83 FluoView1200 laser scanning confocal microscope using a 60 × NA1,35 oil objective (Olympus Italia SRL Milano, Italy), zoom 3×, 559 nm, and 635 nm lasers and filter setting for Mitotracker Red and Cy5. The fluorescence images were analysed with the ImageJ software ([Rasband, 2018]) to determine the Pearson’s correlation coefficient.
For a subset of experiments, we evaluated the mt localization of constructs up to 72 h after treatment. PMT and PMT fragments were administered to sub-confluent cybrids at a concentration of 0.25 µM in the glucose medium. At 24-, 48- and 72-h after treatment, cells were incubated with Mitotracker Red and visualized by confocal microscopy. After each confocal imaging section, a fresh glucose medium was added to the cells, which were maintained under standard conditions (a humidified atmosphere of 95% air and 5% CO2 at 37°C).

**Q.** Which results are given for `CC[C@@H](C)[C@@H](NC(=O)[C@@H](CC(C)C)NC(=O)[C@@H](C)NC(=O)[C@H](NC(=O)[C@@H](CCCNC(=N)N)NC(=O)[C@H]1CCCN1C(=O)[C@@H](CO)NC(=O)[C@@H](CC(C)C)NC(=O)[C@@H](Cc1ccccc1)NC(=O)[C@@H](CO)NC(=O)[C@@H](CCCCN)NC(=O)[C@H](N)CCCCN)[C@H](C)O)C(=O)N[C@H](CC(N)=O)C(=O)N[C@H](Cc1ccccc1)C(=O)N[C@H](CC(C)C)C(=O)N[C@@H](C(N)=O)C(C)C` [PMT]?
**A.** Cell viability of control cells [1]: do not affect; Cell viability (viable cells in galactose as % of glucose medium) (m.3243A>G mutant cybrids [2]): significant improvement of cell viability; Cell viability (viable cells in galactose as % of glucose medium) [3]: significant improvement of cell viability; Oxygen consumption of control cells [4]: do not affect; Oxygen consumption rate (m.3243A>G mutant cybrids [5]): significant increase; Oxygen consumption rate [6]: significant increase; Pearson's correlation coefficient (PCC), mt localization (mutant cybrids; Cy5 constructs 0.25 µM in glucose medium, imaged after 24 h, Mitotracker Red, mean ± SEM of at least five images): 0.83 ± 0.02; Mitochondrial localization over time (mutant cybrids; Cy5 constructs 0.25 µM, imaged after 24, 48 and 72 hours): colocalize with mitochondria up to 72 hours
